{"source": "paper PMC3668706", "about": "“Highly Divergent T-cell Receptor Binding Modes Underlie Specific Recognition of a Bulged Viral Peptide bound to a Human Leukocyte Antigen Class I Molecule” (The Journal of Biological Chemistry, 2013)", "key": {"[1]": {"system": "SB47 CTL clone", "test": "Intracellular IFN-γ staining, SB47 CTL clone with LPEP-pulsed T2 cells", "format": "cell-based, human", "conditions": "IFNγ intracellular staining, peptide-pulsed T2 cells, 4 h; performed twice", "protocol": "Data were analyzed with FlowJo software (Tree Star)."}, "[2]": {"system": "CA5 CTL clone", "conditions": "IFNγ intracellular staining, peptide-pulsed T2 cells, 4 h; performed twice", "description": "CTL clones were tested against a range of antigen-presenting cells and assayed for intracellular expression of IFN-γ by flow cytometry using the BD Cytofix/Cytoperm kit (BD Biosciences) according to standard protocols. Briefly, clones were incubated with antigen-presenting cells at a stimulator to responder ratio of 1:2 for 4 h in the presence of brefeldin A (BioLegend). For peptide titration experiments, T2 cells were incubated with various concentrations of LPEP peptide for 1 h and then washed thoroughly prior to incubation with CTL clones. After stimulation, cells were stained with Live/Dead Fixable Aqua Dead Cell Stain (Invitrogen) and anti-CD8-Cy5.5-PerCP mAb (BioLegend) for 30 min at 4 °C. Cells were then washed, fixed, permeabilized, and labeled with anti-IFN-γ-antigen-presenting cell mAb (BioLegend) for 30 min at 4 °C. After a further wash, samples were collected using a FACSCanto II flow cytometer (BD Biosciences). Data were analyzed with FlowJo software (Tree Star). Lymphocytes were identified based on light scatter, then live CD8^+ T-cells were selected and IFN-γ^+ gates were drawn based on unstimulated controls."}}, "data": [{"sequence": "LPEPLPQGQLTAY [LPEP peptide]", "values": [{"measurement": "recognition of LPEP presented by HLA-B*35:08 versus HLA-B*35:01 by SB47 CTL clone", "setting": "[1]", "result": "equally well"}, {"measurement": "recognition of LPEP presented by HLA-B*35:08 versus HLA-B*35:01 by CA5 CTL clone", "setting": "[2]", "result": "preferentially recognized HLA-B*35:08^LPEP when the peptide was limited"}]}]}
